From patent publication US20210317140A1, “Heterocyclic Compounds and Methods of Use” (MEDIVATION TECHNOLOGIES, INC, priority 2013, published 2021) come the findings set out here.

A word on the IC50: it is the concentration at which inhibition is half-maximal. The low end stands for greater potency, the high end for weaker potency.

Holding throughout (assay type): biochemical
For experiment [1], the target named is T1, PI3Kδ (Homo sapiens, UniProt O00329).
T1 construct: purchased Reaction Biology Corporation
Put plainly: PI3Kδ kinase assay (HTRF, PIP3 detection). Conditions: for IC50: 10 dose IC50, 10 μM ATP; for PI3Kδ @ 0.1 μM (% Inh): 0.1 μM compound; for PI3Kδ @ 1 μM (% Inh): 1 μM compound. Summed up: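 PIP3 formation read by loss of energy transfer as it displaces biotin-PIP3 from a Eu anti-GST/GST-PH/streptavidin-APC complex, calibrated against PIP3 standards.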

Experiment [2] addresses T2, PI3Kγ (Homo sapiens, UniProt P48736).
T2 construct: purchased Reaction Biology Corporation
Put plainly: PI3Kγ isoform profiling (PI3Kδ protocol). Particulars: for PI3Kγ @ 0.3 μM (% Inh): 0.3 μM compound; for IC50: 10 dose IC50. The text has this:
PI3Kδ assay: The PIP3 product is detected by displacement of biotin-PIP3 from an energy transfer complex consisting of Europium labeled anti-GST monoclonal antibody, a GST-tagged pleckstrin homology (PH) domain, biotinylated PIP3 and Streptavidin-Allophycocyanin (APC). Excitation of Europium in the complex results in an energy transfer to the APC and a fluorescent emission at 665 nm. The PIP3 product formed by PI 3-Kinase(h) activity displaces biotin-PIP3 from the complex resulting in a loss of energy transfer and thus a decrease in signal. This is a 3-step reaction: First, the kinase reaction with PIP2 substrate is carried out in the presence of ATP (10 μM), and the reaction is quenched with stop Solution, and then finally detect by adding Detection Mixture followed by incubation (10 min). Reaction procedure: 1) Prepare substrate in freshly prepared Reaction Buffer. 2) Deliver kinase into the substrate solution and gently mix. 3) Deliver compounds in 100% DMSO (1 μM) into the kinase reaction mixture by Acoustic technology (Echo550; nanoliter range), incubate for 10 min at RT. 4) Deliver ATP into the reaction mixture to initiate the reaction. 5) Incubate for 30 min at 30° C. 6) Quench the reaction with Stop Solution. 7) Add Detection Mixture, and incubate for overnight. 8) Measure HTRF: Ex=320 nm, ratio of Em=615 nm and Em=665 nm. The emission ratio is converted into μM PIP3 production based on PIP3 standard curves. The nonlinear regression to obtain the standard curve and IC50 values are performed using Graphpad Prism software. Assay Buffer: HEPES 50 mM (pH7.0), NaN3 0.02%, BSA 0.01%, Orthovanadate 0.1 mM, 1% DMSO. Detection buffer: HEPES 10 mM (pH7.0), BSA 0.02%, KF 0.16 M, EDTA 4 mM. Substrate: 10 μM PIP2 substrate (PI(4,5)P2).
Compounds of the invention were profiled in a 10 dose IC50 panel against PI3Kα, PI3Kβ, and PI3Kγ kinases, provided by Reaction Biology Corporation, applied to the PI3Kδ protocol provided in Example B1.

Experiment [3] has as its target T3, BMX/ETK (Homo sapiens, UniProt P51813).
T3 construct: purchased Reaction Biology Corporation
T3 sequence (P51813 1-675): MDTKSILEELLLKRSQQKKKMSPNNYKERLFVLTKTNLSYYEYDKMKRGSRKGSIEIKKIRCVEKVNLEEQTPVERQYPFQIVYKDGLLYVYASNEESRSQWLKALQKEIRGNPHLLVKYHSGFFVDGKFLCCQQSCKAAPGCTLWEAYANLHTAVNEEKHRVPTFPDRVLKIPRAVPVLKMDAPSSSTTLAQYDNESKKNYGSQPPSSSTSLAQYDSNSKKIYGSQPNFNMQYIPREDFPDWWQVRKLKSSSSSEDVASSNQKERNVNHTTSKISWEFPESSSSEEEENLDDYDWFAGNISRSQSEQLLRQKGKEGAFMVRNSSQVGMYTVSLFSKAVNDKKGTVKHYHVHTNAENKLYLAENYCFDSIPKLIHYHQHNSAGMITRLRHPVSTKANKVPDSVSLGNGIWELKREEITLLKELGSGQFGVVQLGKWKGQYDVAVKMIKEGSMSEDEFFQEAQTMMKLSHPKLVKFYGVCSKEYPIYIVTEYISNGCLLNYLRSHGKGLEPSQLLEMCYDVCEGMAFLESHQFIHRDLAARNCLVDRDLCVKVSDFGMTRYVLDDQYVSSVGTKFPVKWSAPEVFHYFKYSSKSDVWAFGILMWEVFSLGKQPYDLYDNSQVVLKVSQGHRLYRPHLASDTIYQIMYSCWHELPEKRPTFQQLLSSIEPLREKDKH
Put plainly: BMX/ETK kinase profiling (BTK protocol). Particulars: for BMX/ETK @ 0.3 μM (% Inh): 0.3 μM compound; for IC50: 10 dose IC50. Here is the method: BTK assay: In vitro profiling protein kinases was performed using the “HotSpot” assay platform. Briefly, specific kinase/substrate pairs along with required cofactors were prepared in reaction buffer. Compounds were prepared as 10 mM stock solutions in DMSO. Compounds were delivered into the reaction, followed 15-20 minutes later by addition of a mixture of ATP (Sigma, St. Louis Mo.) and ^33P ATP (Perkin Elmer, Waltham Mass.) to a final concentration of 10 μM. Reactions were carried out at RT for 120 min, followed by spotting of the reactions onto P81 ion exchange filter paper (Whatman Inc., Piscataway, N.J.). Unbound phosphate was removed by extensive washing of filters in 0.75% Phosphoric acid. […] IC50 values and curve fits were obtained using Prism (GraphPad Software). Buffer Conditions: 20 mM Hepes (pH 7.5), 10 mM MgCl2, 1 mM EGTA, 0.02% Brij35, 0.02 mg/mL BSA, 0.1 mM Na3VO4, 2 mM DTT, 1% DMSO.
Compounds of the invention were profiled in a 10 dose IC50 panel against BMX/ETK, ITK and TEC kinases, provided by Reaction Biology Corporation, applied to the BTK protocol provided in Example B1.

T2 sequence (P48736 whole entry): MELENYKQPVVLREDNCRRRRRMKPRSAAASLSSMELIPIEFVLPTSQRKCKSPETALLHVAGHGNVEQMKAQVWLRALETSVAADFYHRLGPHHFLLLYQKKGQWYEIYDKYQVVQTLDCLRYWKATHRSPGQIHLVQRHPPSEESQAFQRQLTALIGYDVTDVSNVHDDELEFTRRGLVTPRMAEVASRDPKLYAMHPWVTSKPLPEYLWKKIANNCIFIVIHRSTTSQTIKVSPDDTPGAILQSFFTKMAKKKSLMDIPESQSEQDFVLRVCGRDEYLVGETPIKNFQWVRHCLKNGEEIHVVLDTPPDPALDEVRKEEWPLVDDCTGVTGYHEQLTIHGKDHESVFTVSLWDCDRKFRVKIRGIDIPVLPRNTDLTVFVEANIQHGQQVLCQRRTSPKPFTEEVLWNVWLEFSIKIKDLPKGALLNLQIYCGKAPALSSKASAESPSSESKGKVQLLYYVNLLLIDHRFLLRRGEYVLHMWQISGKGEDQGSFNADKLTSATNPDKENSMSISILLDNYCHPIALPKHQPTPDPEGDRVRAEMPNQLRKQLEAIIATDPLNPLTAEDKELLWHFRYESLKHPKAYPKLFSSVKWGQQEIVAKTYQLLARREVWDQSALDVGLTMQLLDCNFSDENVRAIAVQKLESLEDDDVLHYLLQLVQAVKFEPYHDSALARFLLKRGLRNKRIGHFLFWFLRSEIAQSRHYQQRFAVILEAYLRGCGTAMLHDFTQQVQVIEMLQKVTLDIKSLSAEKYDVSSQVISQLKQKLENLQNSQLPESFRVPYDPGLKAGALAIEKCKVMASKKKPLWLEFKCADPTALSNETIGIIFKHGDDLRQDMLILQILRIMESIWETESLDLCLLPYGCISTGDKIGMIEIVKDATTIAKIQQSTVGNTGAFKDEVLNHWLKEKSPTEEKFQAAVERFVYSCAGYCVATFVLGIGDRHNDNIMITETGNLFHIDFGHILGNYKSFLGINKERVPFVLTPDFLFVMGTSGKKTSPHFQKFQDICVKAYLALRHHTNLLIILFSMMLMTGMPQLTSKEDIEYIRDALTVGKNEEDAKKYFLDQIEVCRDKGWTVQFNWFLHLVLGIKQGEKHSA
T1 sequence (O00329 whole entry): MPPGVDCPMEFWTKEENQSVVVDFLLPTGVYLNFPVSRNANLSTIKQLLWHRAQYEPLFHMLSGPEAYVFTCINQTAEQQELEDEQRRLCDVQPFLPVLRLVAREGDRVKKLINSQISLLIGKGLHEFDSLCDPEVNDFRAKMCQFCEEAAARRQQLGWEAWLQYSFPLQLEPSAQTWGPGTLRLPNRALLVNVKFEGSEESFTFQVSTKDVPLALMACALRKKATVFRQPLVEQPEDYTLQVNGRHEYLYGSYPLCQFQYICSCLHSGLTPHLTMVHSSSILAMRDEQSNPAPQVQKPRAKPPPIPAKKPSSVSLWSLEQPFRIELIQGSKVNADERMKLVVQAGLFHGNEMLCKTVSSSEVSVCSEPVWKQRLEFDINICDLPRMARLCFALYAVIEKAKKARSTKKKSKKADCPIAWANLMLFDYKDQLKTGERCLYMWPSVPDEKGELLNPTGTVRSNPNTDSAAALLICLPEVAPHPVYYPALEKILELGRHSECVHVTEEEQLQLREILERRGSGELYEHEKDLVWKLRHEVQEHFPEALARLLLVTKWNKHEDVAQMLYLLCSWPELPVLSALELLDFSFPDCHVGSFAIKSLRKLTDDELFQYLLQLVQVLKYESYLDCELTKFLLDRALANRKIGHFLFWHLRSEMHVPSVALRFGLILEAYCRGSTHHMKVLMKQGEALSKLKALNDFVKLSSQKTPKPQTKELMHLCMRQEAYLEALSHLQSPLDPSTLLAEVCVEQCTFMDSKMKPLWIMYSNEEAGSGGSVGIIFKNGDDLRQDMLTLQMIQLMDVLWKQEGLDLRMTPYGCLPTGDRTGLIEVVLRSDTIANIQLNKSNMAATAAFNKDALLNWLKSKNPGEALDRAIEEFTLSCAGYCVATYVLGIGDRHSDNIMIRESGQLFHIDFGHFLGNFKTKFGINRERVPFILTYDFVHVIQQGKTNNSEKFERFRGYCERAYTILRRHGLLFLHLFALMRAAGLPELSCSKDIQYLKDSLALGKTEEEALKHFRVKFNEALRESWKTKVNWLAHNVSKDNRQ
T1 sequence (P27986 whole entry partner): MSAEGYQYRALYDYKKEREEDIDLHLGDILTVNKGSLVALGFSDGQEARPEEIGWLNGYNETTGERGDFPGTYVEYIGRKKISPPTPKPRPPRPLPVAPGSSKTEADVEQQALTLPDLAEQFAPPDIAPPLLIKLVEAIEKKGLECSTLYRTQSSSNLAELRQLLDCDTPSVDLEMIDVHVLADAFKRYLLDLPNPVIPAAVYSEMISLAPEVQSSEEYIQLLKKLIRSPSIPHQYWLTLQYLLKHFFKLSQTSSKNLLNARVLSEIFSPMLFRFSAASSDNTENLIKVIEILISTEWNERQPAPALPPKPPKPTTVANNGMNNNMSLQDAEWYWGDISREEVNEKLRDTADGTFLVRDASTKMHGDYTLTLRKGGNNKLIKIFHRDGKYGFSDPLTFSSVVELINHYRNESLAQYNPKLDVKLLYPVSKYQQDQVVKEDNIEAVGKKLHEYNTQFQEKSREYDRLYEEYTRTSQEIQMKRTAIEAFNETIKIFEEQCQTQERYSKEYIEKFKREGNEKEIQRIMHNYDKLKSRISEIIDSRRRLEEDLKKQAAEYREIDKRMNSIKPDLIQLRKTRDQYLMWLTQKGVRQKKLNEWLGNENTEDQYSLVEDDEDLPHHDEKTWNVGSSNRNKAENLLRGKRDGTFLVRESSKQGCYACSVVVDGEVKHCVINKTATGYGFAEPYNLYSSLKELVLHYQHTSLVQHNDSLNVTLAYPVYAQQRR

The compound `Nc1ncnc2c1c(-c1ccc(F)c(O)c1)nn2C1CCc2ccccc2C1` (racemic) [Compound No. 26, 5-(4-amino-1-(1,2,3,4-tetrahydronaphthalen-2-yl)-1H-pyrazolo[3,4-d]pyrimidin-3-yl)-2-fluorophenol] registered an IC50 in experiment [1] of 66.1 nM. Besides, the “PI3Kγ @ 0.3 μM (% Inh)” value in experiment [2] is 38.75 % Inh. Moreover, the “BMX/ETK @ 0.3 μM (% Inh)” value in experiment [3] is listed as 92.36 % Inh.
For the compound `Nc1ncnc2c1c(-c1ccc3cc[nH]c3c1)nn2C1CCc2ccccc2C1` (racemic) [compound 18, 3-(1H-indol-6-yl)-1-(1,2,3,4-tetrahydronaphthalen-2-yl)-1H-pyrazolo[3,4-d]pyrimidin-4-amine], the “PI3Kδ @ 0.1 μM (% Inh)” value in experiment [1] (10 μM ATP) stood at 18.95 % Inh. For the same compound, 108 nM corresponded to half-maximal inhibition in experiment [1] (IC50). Also, in experiment [2], the “PI3Kγ @ 0.3 μM (% Inh)” value came to 19.7 % Inh. In experiment [3], the “BMX/ETK @ 0.3 μM (% Inh)” value is given as 73.26 % Inh.
Regarding `Nc1ncnc2c1c(-c1cc(O)cc(F)c1)nn2C1CCc2ccccc2C1` (single isomer, unassigned) [6a, 3-(4-amino-1-(1,2,3,4-tetrahydronaphthalen-2-yl)-1H-pyrazolo[3,4-d]pyrimidin-3-yl)-5-fluorophenol], the “PI3Kδ @ 0.1 μM (% Inh)” value in experiment [1] (10 μM ATP) is reported as 77.7 % Inh. The compound also returned an IC50 in experiment [1] of 9.1 nM. Also, the “PI3Kγ @ 0.3 μM (% Inh)” value in experiment [2] (0.3 µM) is on record as 38.58 % Inh. The “BMX/ETK @ 0.3 μM (% Inh)” value in experiment [3] (0.3 µM) was 84.79 % Inh.
The matching figures for `Nc1ncnc2c1c(-c1cc(O)cc(F)c1)nn2C1CCc2ccccc2C1` (single isomer, unassigned) [6b, 3-(4-amino-1-(1,2,3,4-tetrahydronaphthalen-2-yl)-1H-pyrazolo[3,4-d]pyrimidin-3-yl)-5-fluorophenol]: 79.6 % Inh, 7.7 nM, 45.57 % Inh and 71.49 % Inh.
Take `C=CC(=O)N1CC(n2nc(-c3cc(O)cc(F)c3)c3c(N)ncnc32)Cc2cc(C)ccc21` (single isomer, unassigned) [31b, 1-(3-(4-amino-3-(3-fluoro-5-hydroxyphenyl)-1H-pyrazolo[3,4-d]pyrimidin-1-yl)-6-methyl-3,4-dihydroquinolin-1(2H)-yl)prop-2-en-1-one]: in experiment [1] (0.01 μM compound, 10 μM ATP), the “PI3Kδ @ 0.01 μM (% Inh)” value stood at 44.15 % Inh. The “PI3Kδ @ 0.1 μM (% Inh)” value in experiment [1] (10 μM ATP) came to 78.27 % Inh. Also, in experiment [1], the IC50 was 10.6 nM. In addition, the “PI3Kγ @ 0.3 μM (% Inh)” value in experiment [2] came to 14.76 % Inh. Besides, the “BMX/ETK @ 0.3 μM (% Inh)” value in experiment [3] worked out at 88.04 % Inh.
As for `Nc1ncnc2c1c(-c1ccc(F)c(O)c1)nn2C1CCc2ccccc2C1` (single isomer, unassigned) [Compound No. 26a, 5-(4-amino-1-(1,2,3,4-tetrahydronaphthalen-2-yl)-1H-pyrazolo[3,4-d]pyrimidin-3-yl)-2-fluorophenol], the “PI3Kδ @ 0.1 μM (% Inh)” value in experiment [1] (10 μM ATP) is on record as 39.35 % Inh. The IC50 in experiment [1] amounted to 114 nM; in experiment [2] it was 405 nM; in experiment [3], 3.1 nM.
The matching figures for `Nc1ncnc2c1c(-c1ccc(F)c(O)c1)nn2C1CCc2ccccc2C1` (single isomer, unassigned) [Compound No. 26b, 5-(4-amino-1-(1,2,3,4-tetrahydronaphthalen-2-yl)-1H-pyrazolo[3,4-d]pyrimidin-3-yl)-2-fluorophenol]: 47.94 % Inh, 55.2 nM, 455 nM and 6.2 nM.
In the case of `Nc1ncnc2c1c(-c1ccc(F)c(O)c1)nn2C1Cc2ccccc2C1` [Compound No. 29, 5-(4-amino-1-indan-2-yl-pyrazolo[3,4-d]pyrimidin-3-yl)-2-fluoro-phenol], in experiment [1] (10 μM ATP), the “PI3Kδ @ 0.1 μM (% Inh)” value is reported as 61.73 % Inh. In addition, the IC50 turned out to be 61.3 nM in experiment [1], 196 nM in experiment [2] and 0.8 nM in experiment [3].
With `COc1cc(-c2nn(C3Cc4ccccc4C3)c3ncnc(N)c23)ccc1C` [Compound No. 49, 1-(2,3-dihydro-1H-inden-2-yl)-3-(3-methoxy-4-methylphenyl)-1H-pyrazolo[3,4-d]pyrimidin-4-amine], in experiment [1] (10 μM ATP), the “PI3Kδ @ 0.1 μM (% Inh)” value is 57.87 % Inh and the “PI3Kδ @ 1 μM (% Inh)” value is listed as 89.73 % Inh. This compound yielded an IC50 in experiment [1] of 119 nM. The “PI3Kγ @ 0.3 μM (% Inh)” value in experiment [2] came out at 30.41 % Inh. Moreover, in experiment [3], the “BMX/ETK @ 0.3 μM (% Inh)” value is given as 75.85 % Inh.
For the compound `Nc1ncnc2c1c(-c1ccc(Cl)c(O)c1)nn2C1Cc2ccccc2C1` [Compound No. 56, 5-[4-amino-1-(2,3-dihydro-1H-inden-2-yl)-1H-pyrazolo[3,4-d]pyrimidin-3-yl]-2-chlorophenol], in experiment [1] (10 μM ATP), the “PI3Kδ @ 0.1 μM (% Inh)” value is recorded as 69.44 % Inh and the “PI3Kδ @ 1 μM (% Inh)” value amounted to 99.12 % Inh. This compound also had an IC50 in experiment [1] of 33.2 nM. Moreover, the “PI3Kγ @ 0.3 μM (% Inh)” value in experiment [2] was 62.17 % Inh. Moreover, the “BMX/ETK @ 0.3 μM (% Inh)” value in experiment [3] was 86.63 % Inh.
`Nc1ncnc2c1c(-c1cc(O)cc(F)c1)cn2C1Cc2ccccc2C1` [Compound No. 63, 3-[4-amino-7-(2,3-dihydro-1H-inden-2-yl)-7H-pyrrolo[2,3-d]pyrimidin-5-yl]-5-fluorophenol]: in experiment [1] (10 μM ATP), the “PI3Kδ @ 0.1 μM (% Inh)” value came to 81.43 % Inh and the “PI3Kδ @ 1 μM (% Inh)” value is on record as 92.56 % Inh. Moreover, in experiment [1], the IC50 worked out at 10.4 nM. For the same compound, the “PI3Kγ @ 0.3 μM (% Inh)” value in experiment [2] was 33.44 % Inh. For the same compound, in experiment [3], the “BMX/ETK @ 0.3 μM (% Inh)” value is on record as 94.69 % Inh.
For the compound `COc1ccc(-c2nn(C3Cc4ccccc4C3)c3ncnc(N)c23)cc1O` [Compound No. 68, 5-[4-amino-1-(2,3-dihydro-1H-inden-2-yl)-1H-pyrazolo[3,4-d]pyrimidin-3-yl]-2-methoxyphenol], in experiment [1] (10 μM ATP), the “PI3Kδ @ 0.1 μM (% Inh)” value turned out to be 57.97 % Inh and the “PI3Kδ @ 1 μM (% Inh)” value is listed as 87.4 % Inh. Further, the IC50 in experiment [1] is 32.1 nM. In addition, the “PI3Kγ @ 0.3 μM (% Inh)” value in experiment [2] is 51.6 % Inh. Further, the “BMX/ETK @ 0.3 μM (% Inh)” value in experiment [3] amounted to 78.92 % Inh.
Take `Nc1ncnc2c1c(-c1cc(O)c(F)c(F)c1)nn2C1Cc2ccccc2C1` [Compound No. 81, 5-[4-amino-1-(2,3-dihydro-1H-inden-2-yl)-1H-pyrazolo[3,4-d]pyrimidin-3-yl]-2,3-difluorophenol]: in experiment [1] (10 μM ATP), the “PI3Kδ @ 0.1 μM (% Inh)” value came out at 87.14 % Inh and the “PI3Kδ @ 1 μM (% Inh)” value is 91.62 % Inh. The compound also returned a half-maximal inhibitory concentration (IC50) in experiment [1] of 3.5 nM. Further, in experiment [2], the “PI3Kγ @ 0.3 μM (% Inh)” value amounted to 68.03 % Inh. Also, the “BMX/ETK @ 0.3 μM (% Inh)” value in experiment [3] is given as 85.6 % Inh.
The compound `Nc1ncnc2c1c(-c1ccc(Br)c(O)c1)nn2C1Cc2ccccc2C1` [compound 2, 5-(4-amino-1-(2,3-dihydro-1H-inden-2-yl)-1H-pyrazolo[3,4-d]pyrimidin-3-yl)-2-bromophenol] returned an IC50 in experiment [3] of 7.7 nM.
